Source: PubChem BioAssay AID2060490 (Molecular Pharmacology Branch, DTP, NCI, 2025)
pIC50: −log10 of the molar value.

System: 885512-296-R-J2-PDC complex spheroid viability
Assay: Anticancer human tumor 885512-296-R-J2-PDC patient-derived breast carcinoma cell line growth inhibition [GQUAD]
Details: for pIC50: curve of first compound; for viability, T/C: stronger effect = lower value
Procedure, shortened: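 Multi-cell-type spheroids of tumor cells with HUVEC and mesenchymal stem cells, treated with drug combinations. Concentrations descend in half-log steps from near clinical Cmax, or from 10 microM where Cmax is unknown; viability read-out.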

[1] = second compound 0.0316 µM, first compound 0.0316 µM
[2] = second compound 0.0316 µM, first compound 0.316 µM
[3] = second compound 0.1 µM, first compound 0.0316 µM
[4] = second compound 0.1 µM, first compound 0.316 µM
[5] = second compound 0.316 µM, first compound 0.0316 µM
[6] = second compound 0.316 µM, first compound 0.316 µM
[7] = second compound 1 µM, first compound 0.0316 µM
[8] = second compound 1 µM, first compound 0.316 µM
[9] = second compound 3.16 µM, first compound 0.0316 µM
[10] = second compound 3.16 µM, first compound 0.316 µM
[11] = second compound 10 µM, first compound 0.0316 µM
[12] = second compound 10 µM, first compound 0.316 µM
[13] = second compound 0.0316 µM, first compound 0.1 µM
[14] = second compound 0.0316 µM, first compound 1 µM
[15] = second compound 0.0316 µM, first compound 3.16 µM
[16] = second compound 0.0316 µM, first compound 10 µM
[17] = second compound 0.1 µM, first compound 0.1 µM
[18] = second compound 0.1 µM, first compound 1 µM
[19] = second compound 0.1 µM, first compound 3.16 µM
[20] = second compound 0.1 µM, first compound 10 µM
[21] = second compound 0.316 µM, first compound 0.1 µM
[22] = second compound 0.316 µM, first compound 1 µM
[23] = second compound 0.316 µM, first compound 3.16 µM
[24] = second compound 0.316 µM, first compound 10 µM
[25] = second compound 1 µM, first compound 0.1 µM
[26] = second compound 1 µM, first compound 1 µM
[27] = second compound 1 µM, first compound 3.16 µM
[28] = second compound 1 µM, first compound 10 µM
[29] = second compound 3.16 µM, first compound 0.1 µM
[30] = second compound 3.16 µM, first compound 1 µM
[31] = second compound 3.16 µM, first compound 3.16 µM
[32] = second compound 3.16 µM, first compound 10 µM
[33] = second compound 10 µM, first compound 0.1 µM
[34] = second compound 10 µM, first compound 1 µM
[35] = second compound 10 µM, first compound 3.16 µM
[36] = second compound 10 µM, first compound 10 µM
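Further: spheroids exposed to the compounds for one week.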
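Wherever viability, T/C is given: percent of tumor spheroid viability relative to DMSO vehicle control wells.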

CC[C@@]1(O)C(=O)OCc2c1cc1n(c2=O)Cc2cc3c(CN(C)C)c(O)ccc3nc2-1 + Cc1[nH]c2ccc(F)cc2c1-c1nc2c3cccnc3c3ncccc3c2[nH]1
pIC50 (second compound 0.0316 µM): 7.58 | pIC50 (second compound 0.1 µM): 7.53 | pIC50 (second compound 0.316 µM): 7.52 | pIC50 (second compound 1 µM): 7.70 | pIC50 (second compound 3.16 µM): > 9.00 | pIC50 (second compound 10 µM): > 9.00 | viability, T/C (second compound 0.0316 µM, first compound 0.000999 µM): 105% | viability, T/C (second compound 0.0316 µM, first compound 0.00316 µM): 88.5% | viability, T/C (second compound 0.0316 µM, first compound 0.00999 µM): 89.9% | viability, T/C [1]: 41.7% | viability, T/C (second compound 0.0316 µM, first compound 0.0999 µM): 14.9% | viability, T/C [2]: 6.49% | viability, T/C (second compound 0.1 µM, first compound 0.000999 µM): 110% | viability, T/C (second compound 0.1 µM, first compound 0.00316 µM): 101% | viability, T/C (second compound 0.1 µM, first compound 0.00999 µM): 98.5% | viability, T/C [3]: 46.9% | viability, T/C (second compound 0.1 µM, first compound 0.0999 µM): 10.7% | viability, T/C [4]: 4.48% | viability, T/C (second compound 0.316 µM, first compound 0.000999 µM): 96% | viability, T/C (second compound 0.316 µM, first compound 0.00316 µM): 101% | viability, T/C (second compound 0.316 µM, first compound 0.00999 µM): 87.3% | viability, T/C [5]: 48.3% | viability, T/C (second compound 0.316 µM, first compound 0.0999 µM): 11.2% | viability, T/C [6]: 3.51% | viability, T/C (second compound 1 µM, first compound 0.000999 µM): 68.2% | viability, T/C (second compound 1 µM, first compound 0.00316 µM): 74.6% | viability, T/C (second compound 1 µM, first compound 0.00999 µM): 72% | viability, T/C [7]: 35.7% | viability, T/C (second compound 1 µM, first compound 0.0999 µM): 9.71% | viability, T/C [8]: 3.76% | viability, T/C (second compound 3.16 µM, first compound 0.000999 µM): 14.8% | viability, T/C (second compound 3.16 µM, first compound 0.00316 µM): 23.3% | viability, T/C (second compound 3.16 µM, first compound 0.00999 µM): 14% | viability, T/C [9]: 6.97% | viability, T/C (second compound 3.16 µM, first compound 0.0999 µM): 2.52% | viability, T/C [10]: 2.01% | viability, T/C (second compound 10 µM, first compound 0.000999 µM): 1.29% | viability, T/C (second compound 10 µM, first compound 0.00316 µM): 2.13% | viability, T/C (second compound 10 µM, first compound 0.00999 µM): 1.51% | viability, T/C [11]: 1.58% | viability, T/C (second compound 10 µM, first compound 0.0999 µM): 1.12% | viability, T/C [12]: 0.82%

CC1COCCN1c1cc(C2(O)CC3CCC(C2)O3)c2cnn(-c3ccn[nH]3)c2n1 (stereo not drawn) + CN(C)c1ccc(Nc2c3ccc(NC(=O)CCN4CCCC4)cc3nc3cc(NC(=O)CCN4CCCC4)ccc23)cc1
pIC50 (second compound 0.0316 µM): > 7.50 | pIC50 (second compound 0.1 µM): > 7.50 | pIC50 (second compound 0.316 µM): > 7.50 | pIC50 (second compound 1 µM): > 7.50 | pIC50 (second compound 3.16 µM): > 7.50 | pIC50 (second compound 10 µM): > 7.50 | viability, T/C [1]: 25.4% | viability, T/C [13]: 5.25% | viability, T/C [2]: 3.07% | viability, T/C [14]: 5.38% | viability, T/C [15]: 6.51% | viability, T/C [16]: 7.85% | viability, T/C [3]: 30% | viability, T/C [17]: 5.86% | viability, T/C [4]: 3.33% | viability, T/C [18]: 4.56% | viability, T/C [19]: 7.53% | viability, T/C [20]: 8.91% | viability, T/C [5]: 22.3% | viability, T/C [21]: 6.08% | viability, T/C [6]: 5.15% | viability, T/C [22]: 4.96% | viability, T/C [23]: 6.17% | viability, T/C [24]: 8.92% | viability, T/C [7]: 29.2% | viability, T/C [25]: 3.86% | viability, T/C [8]: 4.06% | viability, T/C [26]: 4.6% | viability, T/C [27]: 6.32% | viability, T/C [28]: 7.75% | viability, T/C [9]: 18.8% | viability, T/C [29]: 5.47% | viability, T/C [10]: 3.21% | viability, T/C [30]: 4.64% | viability, T/C [31]: 6.84% | viability, T/C [32]: 6.31% | viability, T/C [11]: 12.7% | viability, T/C [33]: 4.76% | viability, T/C [12]: 4.43% | viability, T/C [34]: 2.68% | viability, T/C [35]: 3.3% | viability, T/C [36]: 1.22%

CC(=O)O[C@H]1C(=O)[C@@]2(C)[C@H]([C@H](OC(=O)c3ccccc3)[C@]3(O)C[C@H](OC(=O)[C@H](O)[C@@H](NC(=O)c4ccccc4)c4ccccc4)C(C)=C1C3(C)C)[C@]1(OC(C)=O)CO[C@@H]1C[C@@H]2O + Cc1cnc(CNC(=O)c2c(=O)c3ccc(N4CCCN(C)CC4)nc3n3c2sc2ccccc23)cn1
pIC50 (second compound 0.0316 µM): > 7.50 | pIC50 (second compound 0.1 µM): > 7.50 | pIC50 (second compound 0.316 µM): > 7.50 | pIC50 (second compound 1 µM): > 7.50 | pIC50 (second compound 3.16 µM): > 7.50 | pIC50 (second compound 10 µM): > 7.50 | viability, T/C [1]: 11.1% | viability, T/C [13]: 3.65% | viability, T/C [2]: 3.53% | viability, T/C [14]: 4.58% | viability, T/C [15]: 3.52% | viability, T/C [16]: 3.97% | viability, T/C [3]: 7.92% | viability, T/C [17]: 4.41% | viability, T/C [4]: 6.02% | viability, T/C [18]: 4.78% | viability, T/C [19]: 4.71% | viability, T/C [20]: 4.43% | viability, T/C [5]: 7.35% | viability, T/C [21]: 6.45% | viability, T/C [6]: 5.89% | viability, T/C [22]: 7.32% | viability, T/C [23]: 6.29% | viability, T/C [24]: 6.52% | viability, T/C [7]: 7.81% | viability, T/C [25]: 6.34% | viability, T/C [8]: 5.06% | viability, T/C [26]: 7.14% | viability, T/C [27]: 6.19% | viability, T/C [28]: 7.74% | viability, T/C [9]: 12.7% | viability, T/C [29]: 0.54% | viability, T/C [10]: 0.25% | viability, T/C [30]: 0.47% | viability, T/C [31]: 0.25% | viability, T/C [32]: 0.18% | viability, T/C [11]: 0.12% | viability, T/C [33]: 0.14% | viability, T/C [12]: 0.14% | viability, T/C [34]: 0.12% | viability, T/C [35]: 0.15% | viability, T/C [36]: 0.16%

CC1COCCN1c1cc(C2(O)CC3CCC(C2)O3)c2cnn(-c3ccn[nH]3)c2n1 (stereo not drawn) + Cc1cnc(CNC(=O)c2c(=O)c3ccc(N4CCCN(C)CC4)nc3n3c2sc2ccccc23)cn1
pIC50 (second compound 0.0316 µM): > 7.50 | pIC50 (second compound 0.1 µM): > 7.50 | pIC50 (second compound 0.316 µM): > 7.50 | pIC50 (second compound 1 µM): > 7.50 | pIC50 (second compound 3.16 µM): > 7.50 | pIC50 (second compound 10 µM): > 7.50 | viability, T/C [1]: 5.92% | viability, T/C [13]: 3.36% | viability, T/C [2]: 3.06% | viability, T/C [14]: 4.49% | viability, T/C [15]: 5.92% | viability, T/C [16]: 7.8% | viability, T/C [3]: 5.95% | viability, T/C [17]: 3.36% | viability, T/C [4]: 3.12% | viability, T/C [18]: 4.44% | viability, T/C [19]: 6.08% | viability, T/C [20]: 7% | viability, T/C [5]: 4.59% | viability, T/C [21]: 4.72% | viability, T/C [6]: 4.92% | viability, T/C [22]: 5.25% | viability, T/C [23]: 7.22% | viability, T/C [24]: 7.55% | viability, T/C [7]: 6.13% | viability, T/C [25]: 4.5% | viability, T/C [8]: 5.8% | viability, T/C [26]: 6.61% | viability, T/C [27]: 7.78% | viability, T/C [28]: 6.44% | viability, T/C [9]: 2.58% | viability, T/C [29]: 3.35% | viability, T/C [10]: 4.73% | viability, T/C [30]: 4.41% | viability, T/C [31]: 2.5% | viability, T/C [32]: 1.93% | viability, T/C [11]: 0.03% | viability, T/C [33]: 0.09% | viability, T/C [12]: 0.14% | viability, T/C [34]: 0.07% | viability, T/C [35]: 0.12% | viability, T/C [36]: 0.12%
